{"source": "patent US20250333441A1", "about": "“POLYPEPTIDE INHIBITORS AND USES THEREOF” (Neuracle Science Co., Ltd., priority 2021, published 2025)", "test_system": "mouse hippocampal neurons treated with toxic amyloid beta oligomer", "assay": "Amyloid beta-induced synapse loss in primary hippocampal neurons", "assay_type": "cell-based", "conditions": "6.6 nM; co-treated with toxic amyloid beta oligomer; 21 DIV", "protocol": "Alzheimer's disease (AD) is tightly associated with the dysmetabolism of amyloid-R (A3). To begin assessing whether the polypeptides provided herein (i.e., comprising the FAM19A5 binding domain of LRRC4 protein family members) could have any therapeutic effects on AD, the effect of various FB-21 peptide fragments described herein on the deformation of synapse induced by toxic A3 oligomer and following structural recovery was assessed. Specifically, the following FB-21 peptide fragments were tested: FB-21, FB-JM-31 and FB-BBB-39 (see Example 10).\nAβ42 (#20276) peptide was purchased from AnaSpec (Fremont, USA). […]\nHippocampal neurons were treated with 6.6 nM FB-21, 6.6 nM of FB-13-JM and 6.6 nM of FB-13-BBBX2 at 14, 17 and 20 DIV to determine the level of synaptogenesis at 21 DIV by immunostaining SYP, a presynapse marker protein and PSD95, a postsynapse marker protein. To quantify fluorescence intensity for SYN and PSD95 and number of colocalized voxels between SYN and PSD95 signals, z-stack confocal images of 3 m in depth were converted to 3D images using IMARIS software (IMARIS9.0, Bitplane AG, Zurich, Switzerland). The “Surface tool” of the IMARIS software was used to exclude all the signals detected in neuronal cell bodies, and number of colocalized voxels between SYN and PSD95 signals in neurites were calculated using the “Coloc tool”. […]", "note": "Where no end group is shown, it is not given here. [ ]: non-standard residue; d: D form."}
{"substance": "nYTYFTTVTVETLETQPGEEALDEVMKTTKa ([dN]YTYFTTVTVETLETQPGEEALDEVMKTTK[dA]; also: terminal modifications) [dFB-JM-31]", "values": [{"measurement": "colocalized voxels for PSD95 and synaptophysin", "value": "significant increase"}]}
